# Reference: patent publication US20260262643A1, “HERBICIDAL BENZOXAZINES” (FMC CORPORATION, priority 2022, published 2026)
# Columns and labels:
# barnyardgrass [1] = assay: Test C postemergence; format: in vivo, Echinochloa crusgalli; conditions: Postemergence, 1000 g ai/ha; 0 to 100 scale, 0 no effect, 100 complete control
# Description: (§1) Seeds of plant species selected from barnyardgrass (Echinochloa crusgalli), blackgrass (Alopecurus myosuroides), corn (Zea mays), foxtail, giant (giant foxtail, Setaria faberi), green foxtail (Setaria viridis), goosegrass (Eleusine indica), kochia (Bassia scoparia), oat, wild (wild oat, Avena fatua), pigweed, palmer (palmer amaranth, palmer pigweed, Amaranthus palmeri), Pigweed, Redroot (redroot pigweed, Amaranthus retroflexus), ragweed (common ragweed, Ambrosia artemisiifolia), ryegrass, Italian ([…] ryegrass, Lolium multiflorum), soybean (Glycine max), and wheat (Triticum aestivum) were planted into a blend of loam soil and sand and treated preemergence with a directed soil spray using test chemicals formulated in a non-phytotoxic solvent mixture which included a surfactant. At the same time, plants selected from these crops and weed species and also galium (catchweed bedstraw, Galium aparine) and horseweed (Erigeron canadensis) were planted in pots containing the same blend of loam soil and sand and treated with postemergence applications of test chemicals formulated in the same manner. Plants ranged in height from 2 to 10 cm and were in the one- to two-leaf stage for the postemergence treatment. Treated plants and untreated controls were maintained in a greenhouse for 10 days, after which time all treated plants were compared to untreated controls and visually evaluated for injury. Plant response ratings, summarized in Table C, are based on a 0 to 100 scale where 0 is no effect and 100 is complete control. A dash (-) response means no test result.
# green foxtail [2] = assay: Test C postemergence; format: in vivo, Setaria viridis; conditions: Postemergence, 1000 g ai/ha
# Description: as §1
# kochia [3] = assay: Test C preemergence; format: in vivo, Bassia scoparia; conditions: Preemergence, 1000 g ai/ha; visual rating after 10 days, 0 to 100 scale (0 no effect, 100 complete control)
# Description: as §1
# kochia [4] = assay: Test C postemergence; format: in vivo, Bassia scoparia; conditions: Postemergence, 1000 g ai/ha
# Description: as §1
# ryegrass, Italian [5] = assay: Test C postemergence; format: in vivo, Lolium multiflorum; conditions: Postemergence, 1000 g ai/ha
# Description: as §1
# blackgrass [6] = assay: Test C preemergence; format: in vivo, Alopecurus myosuroides; conditions: Preemergence, 1000 g ai/ha; visual rating after 10 days, 0 to 100 scale (0 no effect, 100 complete control)
# Description: as §1
# pigweed, palmer [7] = assay: Test C postemergence; format: in vivo, Amaranthus palmeri; conditions: Postemergence, 1000 g ai/ha
# Description: as §1
# galium = assay: Test C postemergence; format: in vivo, Galium aparine; conditions: Postemergence, 1000 g ai/ha; 0 to 100 scale, 0 no effect, 100 complete control
# Description: as §1
# green foxtail [8] = assay: Test C preemergence; format: in vivo, Setaria viridis; conditions: Preemergence, 1000 g ai/ha; visual rating after 10 days, 0 to 100 scale (0 no effect, 100 complete control)
# Description: as §1
# barnyardgrass [9] = assay: Test C preemergence; format: in vivo, Echinochloa crusgalli; conditions: Preemergence, 1000 g ai/ha; visual rating after 10 days, 0 to 100 scale (0 no effect, 100 complete control)
# Description: as §1
# horseweed = assay: Test C postemergence; format: in vivo, Erigeron canadensis; conditions: Postemergence, 1000 g ai/ha
# Description: as §1
# ragweed [10] = assay: Test C preemergence; format: in vivo, Ambrosia artemisiifolia; conditions: Preemergence, 1000 g ai/ha; visual rating after 10 days, 0 to 100 scale (0 no effect, 100 complete control)
# Description: as §1
# ryegrass, Italian [11] = assay: Test C preemergence; format: in vivo, Lolium multiflorum; conditions: Preemergence, 1000 g ai/ha; visual rating after 10 days, 0 to 100 scale (0 no effect, 100 complete control)
# Description: as §1
# ragweed [12] = assay: Test C postemergence; format: in vivo, Ambrosia artemisiifolia; conditions: Postemergence, 1000 g ai/ha
# Description: as §1
# pigweed, palmer [13] = assay: Test C preemergence; format: in vivo, Amaranthus palmeri; conditions: Preemergence, 1000 g ai/ha; visual rating after 10 days, 0 to 100 scale (0 no effect, 100 complete control)
# Description: as §1
# blackgrass [14] = assay: Test C postemergence; format: in vivo, Alopecurus myosuroides; conditions: Postemergence, 1000 g ai/ha
# Description: as §1
# [15] = 0 to 100 scale, 0 no effect, 100 complete control
# [16] = 10 days, visual 0 to 100 scale (0 no effect, 100 complete control)
smiles,measurement,setting,value
Cc1ccc(-c2cccc(C(=O)N3C[C@H](C)Oc4c(C)cccc43)c2)cn1 [Compound 159],"Plant response rating, Barnyardgrass",barnyardgrass [1],10
same,"Plant response rating, Foxtail, Green",green foxtail [2]; [15],30
same,"Plant response rating, Kochia",kochia [3],0
same,"Plant response rating, Kochia",kochia [4]; [15],40
same,"Plant response rating, Ryegrass, Italian","ryegrass, Italian [5]; [15]",40
same,"Plant response rating, Blackgrass",blackgrass [6],0
same,"Plant response rating, Pigweed, Palmer","pigweed, palmer [7]; [15]",20
same,"Plant response rating, Galium",galium,50
same,"Plant response rating, Foxtail, Green",green foxtail [8],20
same,"Plant response rating, Barnyardgrass",barnyardgrass [9],0
same,"Plant response rating, Horseweed",horseweed; [15],0
same,"Plant response rating, Ragweed",ragweed [10],0
same,"Plant response rating, Ryegrass, Italian","ryegrass, Italian [11]",20
same,"Plant response rating, Ragweed",ragweed [12]; [15],60
same,"Plant response rating, Pigweed, Palmer","pigweed, palmer [13]",20
same,"Plant response rating, Blackgrass",blackgrass [14]; [15],0
Cc1ccc(-c2cccc(C(=O)N3C[C@H](C)Oc4c(C)cccc43)c2)nn1 [Compound 160],"Plant response rating, Barnyardgrass",barnyardgrass [1],10
same,"Plant response rating, Foxtail, Green",green foxtail [2]; [15],40
same,"Plant response rating, Kochia",kochia [3],70
same,"Plant response rating, Kochia",kochia [4]; [15],70
same,"Plant response rating, Ryegrass, Italian","ryegrass, Italian [5]; [15]",0
same,"Plant response rating, Blackgrass",blackgrass [6],0
same,"Plant response rating, Pigweed, Palmer","pigweed, palmer [7]; [15]",0
same,"Plant response rating, Galium",galium,50
same,"Plant response rating, Foxtail, Green",green foxtail [8],30
same,"Plant response rating, Barnyardgrass",barnyardgrass [9],30
same,"Plant response rating, Horseweed",horseweed; [15],0
same,"Plant response rating, Ragweed",ragweed [10],0
same,"Plant response rating, Ryegrass, Italian","ryegrass, Italian [11]",40
same,"Plant response rating, Ragweed",ragweed [12]; [15],0
same,"Plant response rating, Pigweed, Palmer","pigweed, palmer [13]",20
same,"Plant response rating, Blackgrass",blackgrass [14]; [15],20
Cc1ncc(-c2cccc(C(=O)N3C[C@H](C)Oc4c(C)cccc43)c2)cn1 [Compound 161],"Plant response rating, Barnyardgrass",barnyardgrass [1],10
same,"Plant response rating, Foxtail, Green",green foxtail [2]; [15],10
same,"Plant response rating, Kochia",kochia [3],30
same,"Plant response rating, Kochia",kochia [4]; [15],30
same,"Plant response rating, Ryegrass, Italian","ryegrass, Italian [5]; [15]",20
same,"Plant response rating, Blackgrass",blackgrass [6],0
same,"Plant response rating, Pigweed, Palmer","pigweed, palmer [7]; [15]",0
same,"Plant response rating, Galium",galium,50
same,"Plant response rating, Foxtail, Green",green foxtail [8],70
same,"Plant response rating, Barnyardgrass",barnyardgrass [9],50
same,"Plant response rating, Horseweed",horseweed; [15],10
same,"Plant response rating, Ragweed",ragweed [10],80
same,"Plant response rating, Ryegrass, Italian","ryegrass, Italian [11]",80
same,"Plant response rating, Ragweed",ragweed [12]; [15],50
same,"Plant response rating, Pigweed, Palmer","pigweed, palmer [13]",0
same,"Plant response rating, Blackgrass",blackgrass [14]; [15],50
C[C@H]1CN(C(=O)c2cccc(-n3cccc3)c2)c2cccc(Cl)c2O1 [Compound 222],"Plant response rating, Barnyardgrass",barnyardgrass [1],20
same,"Plant response rating, Foxtail, Green",green foxtail [2]; [16],40
same,"Plant response rating, Kochia",kochia [3],20
same,"Plant response rating, Kochia",kochia [4]; [16],60
same,"Plant response rating, Ryegrass, Italian","ryegrass, Italian [5]; [16]",50
same,"Plant response rating, Blackgrass",blackgrass [6],70
same,"Plant response rating, Pigweed, Palmer","pigweed, palmer [7]; [16]",60
same,"Plant response rating, Foxtail, Green",green foxtail [8],100
same,"Plant response rating, Barnyardgrass",barnyardgrass [9],50
same,"Plant response rating, Horseweed",horseweed; [16],0
same,"Plant response rating, Ragweed",ragweed [10],0
same,"Plant response rating, Ryegrass, Italian","ryegrass, Italian [11]",70
same,"Plant response rating, Ragweed",ragweed [12]; [16],0
same,"Plant response rating, Pigweed, Palmer","pigweed, palmer [13]",50
same,"Plant response rating, Blackgrass",blackgrass [14]; [16],50
